# Reference: article PMC6934184, “Selective DNA-PKcs inhibition extends the therapeutic index of localized radiotherapy and chemotherapy” (The Journal of Clinical Investigation, 2019)
# Target: T1, NLK (Homo sapiens, UniProt Q9UBE8)
# T1 construct: purchased Thermo Fisher Scientific (Life Technologies) SelectScreen
# Assay: SelectScreen LanthaScreen
# Type: binding
# Details: read-out: % displacement
# Procedure: The in vitro kinase selectivity of NU5455 was determined using the SelectScreen Broad Assay Panel (Thermo Fisher Scientific) involving activity and binding assays (Supplemental Table 1). […] Class IA PI3Ks were measured using the p85α subunit.
# Kinase [ATP] % Assay Kinase [ATP] % Assay Kinase [ATP] % Assay Kinase [ATP] % Assay
# DNA-PK Km app 98.3 Z LATS2 n/a 4.7 L KIT D820E n/a 1.3 L GSK3B (GSK3 beta) Km app -2.5 Z
# PIK3C3 (hVPS34) Km app 85.9 A PRKCZ (PKC zeta) Km app 4.7 Z GRK1 n/a 1.3 L BMPR2 n/a -2.5 L
# PIK3C2B (PI3K-C2 beta) 10 28.9 A FGFR1 Km app 4.7 Z BRSK2 n/a 1.2 L CDC42 BPB (MRCKB) Km app -2.5 Z
# SNF1LK2 Km app 26.6 Z MINK1 Km app 4.6 Z NUAK1 (ARK5) Km app 1.2 A AMPK (A2/B2/G2) n/a -2.6 L
# HCK Km app 18.0 Z CSF1R (FMS) Km app 4.3 Z CDK9/cyclin K n/a 1.0 L PRKG1 Km app -2.7 Z
# NEK2 Km app 17.8 Z CSNK1G3 (CK1 gamma 3) Km app 4.2 Z NUAK2 n/a 1.0 L KIT T670E n/a -2.8 L
# ALK Km app 17.3 Z STK32C (YANK3) n/a 4.2 L CDK2/cyclin O n/a 0.9 L ERBB4 (HER4) Km app -2.8 Z
# FGFR3 K650M n/a 16.5 L STK22D (TSSK1) Km app 4.2 Z CAMKK2 (CaMKK beta) n/a 0.9 L PLK4 n/a -2.8 L
# SIK3 n/a 16.1 L TAOK3 (JIK) n/a 4.2 L FGFR3 Km app 0.9 Z GRK7 Km app -3.0 Z
# LYN A Km app 15.2 Z RPS6KA4 (MSK2) Km app 4.2 Z ULK2 n/a 0.9 L MAPKAPK2 Km app -3.1 Z
# BMPR1B (ALK6) n/a 14.5 L PTK2B (FAK2) Km app 4.2 Z KIT D816V n/a 0.9 L FGFR4 Km app -3.1 Z
# INSRR (IRR) Km app 14.1 Z CLK2 Km app 4.1 Z CAMK1 (CaMK1) 10 0.8 A CASK n/a -3.1 L
# PLK2 Km app 14.1 Z STK24 (MST3) Km app 4.1 Z PTK6 (Brk) Km app 0.7 Z GRK5 Km app -3.2 Z
# PRKACA (PKA) Km app 14.0 Z CAMK1D (CaMKI delta) Km app 4.1 Z CAMK2B (CaMKII beta) Km app 0.7 Z EGFR (ErbB1) T790M Km app -3.3 Z
# EIF2AK2 (PKR) n/a 13.3 L INSR Km app 4.1 Z ACVR1 (ALK2) n/a 0.7 L PAK4 Km app -3.3 Z
# PRKX Km app 12.5 Z IRAK1 Km app 4.0 A ABL1 H396P n/a 0.6 L DAPK3 (ZIPK) Km app -3.4 Z
# FGR Km app 12.1 Z SRC N1 Km app 3.9 Z MERTK (cMER) A708S n/a 0.6 L RET M918T n/a -3.5 L
# CLK1 Km app 11.7 Z SRPK2 Km app 3.9 Z MAPKAPK5 (PRAK) Km app 0.6 Z PRKCQ (PKC theta) Km app -3.7 Z
# MARK3 Km app 11.4 Z RPS6KA6 (RSK4) Km app 3.8 Z AKT1 (PKB alpha) Km app 0.5 Z CAMKK1 (CAMKKA) n/a -3.8 L
# PDGFRB (PDGFR beta) Km app 11.0 Z GRK6 Km app 3.7 Z NTRK3 (TRKC) Km app 0.4 Z FLT3 D835Y Km app -3.9 Z
# PRKCN (PKD3) Km app 10.7 Z PKN1 (PRK1) Km app 3.6 Z ZAP70 Km app 0.3 Z ROCK2 Km app -4.1 Z
# STK16 (PKL12) n/a 10.5 L MAP3K8 (COT) 100 3.5 Z CSNK1A1 (CK1 alpha 1) Km app 0.3 Z CHUK (IKK alpha) Km app -4.2 A
# FES (FPS) Km app 10.4 Z FLT4 (VEGFR3) Km app 3.5 Z MYLK (MLCK) n/a 0.2 L AXL Km app -4.2 Z
# ABL1 Km app 10.4 Z GRK4 Km app 3.5 Z MKNK2 (MNK2) n/a 0.2 L PIM2 Km app -4.3 Z
# MUSK Km app 10.3 Z FRK (PTK5) Km app 3.4 Z AMPK (A1/B1/G3) n/a 0.2 L PAK1 Km app -4.4 Z
# MAPK1 (ERK2) Km app 10.1 Z FYN A n/a 3.3 L MAP3K2 (MEKK2) n/a 0.1 L BMPR1A (ALK3) n/a -4.4 L
# BRAF 100 9.9 Z CDK1/cyclin A2 n/a 3.3 L CDK8/cyclin C n/a 0.1 L STK4 (MST1) Km app -4.4 Z
# IGF1R Km app 9.7 Z KIT V559D T670I n/a 3.1 L MARK2 Km app 0.1 Z PRKCH (PKC eta) Km app -4.6 Z
# MAPK14 (p38 alpha) Km app 9.7 Z SPHK2 10 3.1 A ICK n/a 0.0 L SGKL (SGK3) Km app -4.6 Z
# LCK Km app 9.6 Z FGFR3 G697C n/a 3.1 L FGFR2 Km app 0.0 Z PI4KB (PI4K beta) Km app -4.7 A
# MAPK11 (p38 beta) Km app 9.5 Z RIPK2 n/a 3.1 L AKT2 (PKB beta) Km app 0.0 Z PRKCE (PKC epsilon) Km app -4.9 Z
# SRC Km app 9.5 Z PAK6 Km app 3.0 Z EPHB2 Km app -0.1 Z PHKG1 Km app -5.0 Z
# CHEK1 (CHK1) Km app 9.3 Z LYN B Km app 3.0 Z TGFBR2 n/a -0.1 L PDGFRA D842V Km app -5.0 Z
# CAMK2D (CaMKII delta) Km app 9.3 Z DAPK2 n/a 2.9 L TEK (Tie2) Km app -0.1 Z PRKG2 (PKG2) Km app -5.1 Z
# PLK1 Km app 9.2 Z EPHA4 Km app 2.9 Z AURKA (Aurora A) Km app -0.1 Z TYRO3 (RSE) Km app -5.1 Z
# RET Y791F Km app 9.2 Z PIK3CG (p110 gamma) Km app 2.9 A KIT D816H n/a -0.2 L TAOK2 (TAO1) Km app -5.1 Z
# FLT3 Km app 9.1 Z HIPK1 (Myak) Km app 2.8 Z KIT N822K n/a -0.2 L EPHB4 Km app -5.3 Z
# MAPK10 (JNK3) 100 9.0 Z ADRBK2 (GRK3) Km app 2.8 Z PRKACG (PRKAC gamma) n/a -0.2 L AURKC (Aurora C) Km app -5.4 Z
# CSNK2A2 (CK2 alpha 2) Km app 8.7 Z STK17B (DRAK2) n/a 2.7 L TEK (TIE2) Y1108F n/a -0.3 L JAK1 Km app -5.7 Z […]
# T1 sequence (Q9UBE8 whole entry): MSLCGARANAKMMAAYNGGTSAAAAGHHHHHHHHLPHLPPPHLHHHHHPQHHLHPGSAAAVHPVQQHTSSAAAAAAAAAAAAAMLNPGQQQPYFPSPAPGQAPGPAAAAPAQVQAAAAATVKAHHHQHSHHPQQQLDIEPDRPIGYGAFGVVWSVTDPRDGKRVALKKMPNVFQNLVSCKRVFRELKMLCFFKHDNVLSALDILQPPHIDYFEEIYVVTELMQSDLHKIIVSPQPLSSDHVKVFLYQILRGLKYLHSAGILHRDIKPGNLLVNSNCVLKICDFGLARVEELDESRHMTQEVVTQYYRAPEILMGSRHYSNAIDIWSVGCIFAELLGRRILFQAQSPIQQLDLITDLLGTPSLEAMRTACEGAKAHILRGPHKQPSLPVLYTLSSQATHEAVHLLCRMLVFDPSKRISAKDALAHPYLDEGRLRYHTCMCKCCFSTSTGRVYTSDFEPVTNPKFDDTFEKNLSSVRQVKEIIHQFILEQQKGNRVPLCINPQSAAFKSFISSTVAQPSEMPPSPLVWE
structure (smiles),measurement,value
CN(C(=O)CN1CCOCC1)c1ccc2sc3c(-c4cccc5c(=O)cc(N6CC7CCC(C6)O7)oc45)cccc3c2c1 [NU5455],inhibition at 1 µM,4.7%
